From US12594268B2, “Methods of treating Fabry disease in patients having a mutation in the GLA gene” (Amicus Therapeutics, Inc., priority 2018, dated 2026)
Where a chain is given by its changes, count along the chain named.

Tests used:
[1] = biological target: T1, α-Gal A mutant form D155E (Homo sapiens, UniProt P06280, D155E); test: α-Gal A activity in lysates of transfected HEK-293 cells, D155E; type: cell-based
T1 construct: expressed in transfected cells; host or cells: HEK-293
T1 sequence (P06280 32-429 D155E): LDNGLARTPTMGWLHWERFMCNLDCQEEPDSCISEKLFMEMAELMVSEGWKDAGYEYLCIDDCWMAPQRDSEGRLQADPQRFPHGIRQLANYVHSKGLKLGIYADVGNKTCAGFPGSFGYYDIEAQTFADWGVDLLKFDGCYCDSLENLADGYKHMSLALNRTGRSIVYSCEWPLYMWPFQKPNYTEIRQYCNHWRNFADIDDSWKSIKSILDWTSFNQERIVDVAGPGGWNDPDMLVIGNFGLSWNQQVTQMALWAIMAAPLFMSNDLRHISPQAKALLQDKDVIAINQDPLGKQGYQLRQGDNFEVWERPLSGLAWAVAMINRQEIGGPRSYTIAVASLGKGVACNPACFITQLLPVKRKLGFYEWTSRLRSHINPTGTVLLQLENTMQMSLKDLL
Procedure: (§1) Baseline and 10 μM migalastat α-Gal A activity: Differences in the α-Gal A activity between lysates incubated in the absence and presence of 10 μM migalastat were determined using a one-tailed, Mann Whitney U test; an increase at 10 μM migalastat with a p<0.05 was considered significant.
(§2) 10 μM migalastat α-Gal A activity (% WT)=(α-Gal A activity in mutant transfected cell lysates incubated with 10 μM migalastat÷α-Gal A activity in wild-type transfected cell lysates without migalastat)*100.
(§3) Absolute increase (% WT)=is the 10 μM migalastat α-Gal A activity (% WT) minus the baseline α-Gal A activity (% WT).
(§4) Relative increase is the 10 μM migalastat α-Gal A activity in mutant transfected cell lysates÷baseline α-Gal A activity in mutant transfected cell lysates incubated without migalastat.

α-Gal A mutant form M96V = biological target: T2, α-Gal A mutant form M96V (Homo sapiens, UniProt P06280, M96V); test: α-Gal A activity in lysates of transfected HEK-293 cells, M96V; type: cell-based
T2 construct: expressed in transfected cells; host or cells: HEK-293
T2 sequence (P06280 32-429 M96V): T1 sequence (P06280 32-429 D155E) with M65V, E124D
Procedure: as §1, §2, §3, §4

[2] = system: mutant form of α-Gal A expressed in HEK-293 cells; test: HEK assay amenability criteria (relative increase ≥1.20-fold and absolute increase ≥3.0% wild-type)
Procedure: The α-Gal A activity was measured in lysates prepared from HEK-293 cells transiently transfected with the indicated mutant form of α-Gal A and incubated in the absence or presence of 10 μM migalastat for 5 days. The α-Gal A activity is expressed as the nmoles of free 4-MU released per milligram of protein per hour (nmol/mg/hr). Baseline α-Gal A activity and α-Gal A activity after incubation with 10 μM migalastat, were additionally expressed as a percentage of baseline wild-type α-Gal A activity (% WT). The wild-type α-Gal A activity that was used to calculate these percentages was the average activity measured in lysates from wild-type transfected cells, incubated in the absence of migalastat, measured in parallel.

α-Gal A mutant form V22G = biological target: T3, α-Gal A mutant form V22G (Homo sapiens, UniProt P06280); test: α-Gal A activity in lysates of transfected HEK-293 cells, V22G; type: cell-based
T3 construct: expressed in transfected cells; host or cells: HEK-293
T3 sequence (P06280 32-429): T1 sequence (P06280 32-429 D155E) with E124D
Procedure: as §1, §2, §3, §4

[3] = biological target: T4, α-Gal A mutant form T194A (Homo sapiens, UniProt P06280, T194A); test: α-Gal A activity in lysates of transfected HEK-293 cells, T194A; type: cell-based
T4 construct: expressed in transfected cells; host or cells: HEK-293
T4 sequence (P06280 32-429 T194A): T1 sequence (P06280 32-429 D155E) with E124D, T163A
Procedure: as §1, §2, §3, §4

[4] = biological target: T5, α-Gal A mutant form P323T (Homo sapiens, UniProt P06280, P323T); test: α-Gal A activity in lysates of transfected HEK-293 cells, P323T; type: cell-based
T5 construct: expressed in transfected cells; host or cells: HEK-293
T5 sequence (P06280 32-429 P323T): T1 sequence (P06280 32-429 D155E) with E124D, P292T
Procedure: as §1, §2, §3, §4

[5] = 10 μM migalastat minus baseline
[6] = 10 μM migalastat ÷ baseline activity
[7] = HEK-293 lysates, 10 μM migalastat, 5 days, mean ± SEM

Absolute increase (% WT) [1, 5]: 14.5 % WT
Relative increase [1, 6]: 3.81
10 μM migalastat α-Gal A activity [1, 7]: 6619 ± 337 nmol/mg/h
10 μM migalastat α-Gal A activity (% WT) [1, 7]: 19.8 ± 1.0 % WT
Absolute increase (% WT) (α-Gal A mutant form M96V; [5]): 24.2 % WT
Relative increase (α-Gal A mutant form M96V; [6]): 2.68
10 μM migalastat α-Gal A activity (α-Gal A mutant form M96V; [7]): 14612 ± 1009 nmol/mg/h
10 μM migalastat α-Gal A activity (% WT) (α-Gal A mutant form M96V; [7]): 38.1 ± 2.4 % WT
Absolute increase (% WT) (α-Gal A mutant form V22G; [5]): 9.0 % WT
Relative increase (α-Gal A mutant form V22G; [6]): 1.53
10 μM migalastat α-Gal A activity (α-Gal A mutant form V22G; [7]): 7150 ± 700 nmol/mg/h
10 μM migalastat α-Gal A activity (% WT) (α-Gal A mutant form V22G; [7]): 24.6 ± 2.8 % WT
Absolute increase (% WT) [3, 5]: 19.7 % WT
Relative increase [3, 6]: 2.75
10 nM migalastat α-Gal A activity ([3]; HEK-293 lysates, 10 nM migalastat as printed, 5 days, mean ± SEM): 10315 ± 459 nmol/mg/h
10 μM migalastat α-Gal A activity (% WT) [3, 7]: 30.5 ± 2.0 % WT
Absolute increase (% WT) [4, 5]: 12.3 % WT
Relative increase [4, 6]: 1.21
10 μM migalastat α-Gal A activity [4, 7]: 29631 ± 1144 nmol/mg/h
10 μM migalastat α-Gal A activity (% WT) [4, 7]: 71.3 ± 4.1 % WT
SMILES: OC[C@H]1NC[C@H](O)[C@@H](O)[C@H]1O [migalastat, (2R,3S,4R,5S)-2-(hydroxymethyl) piperdine-3,4,5-triol]
in vitro response to incubation with migalastat (amenability) ([2]; Table 2, mutations D33H, G35A, Y88S, T194A, W204G, Y216S, Q250K, and R392T): met amenability criteria
in vitro response to incubation with migalastat (amenability) ([2]; Table 3, mutations printed as D33H, G35A, Y88S, T194A, W204G, Y216S, Q250K, and R392T): met amenability criteria
in vitro response to incubation with migalastat (amenability) ([2]; Table 4, mutations V22G, N34H, G80V, Q107R, Y152D, A156S, L189F, W204L, S238G, 1239M, A257V, P259Q, N320H, P323T, E338V, P380L, and T412P): met amenability criteria
